Test results as given in patent US20150290235A1, “USE OF SMALL MOLECULE INHIBITORS/ACTIVATORS IN COMBINATION WITH (DEOXY)NUCLEOSIDE OR (DEOXY)NUCLEOTIDE ANALOGS FOR TREATMENT OF CANCER AND HEMATOLOGICAL MALIGNANCIES OR VIRAL INFECTIONS” (AB SCIENCE, priority 2012, published 2015).
Where two headings read alike, the source gives them in different places. Marks after values point to notes of the source that are not given here.

Legend:
[1] = test system: LnCaP prostate cancer cells; assay: WST-1 proliferation/survival assay, LnCaP; type: cell-based; details: Homo sapiens, read-out: Gemcitabine IC50
Protocol: (§1) Gemcitabine (Gemzar, Lilly France) was obtained as a powder and dissolved in sterile 0.9% NaCl solution and stored as aliquots at −80° C. Fresh dilutions were prepared fcr each experiment. Cell lines: Colon and prostate cancer cell lines (Dr. Juan Iovanna, INSERM U624, Marseille, France), breast and ovarian cancer cell lines (Dr. Patrice Dubreuil, UMR 599 INSERM, Marseille, France), and lung cancer cell lines (Pr. Christian Auclair, UMR 8113 CNRS) were cultured as monolayers in RPMI 1640 medium containing L-glutamine supplemented with 100 U/ml penicillin and 100 μg/ml streptomycin, and 10% v/v heat-inactivated fetal calf serum (AbCys Lot S02823S1800) under standard culture conditions (5% CO2, 95% air in humidified chamber at 37° C.). In proliferation assays, all cells were grown in medium containing 1% FCS.
(§2) Treatment was started with the addition of the respective drug. […] After 72 hours WST-1 reagent was added and incubated with the cells for 4 hours before absorbance measurement at 450 nm in an EL800 Universal Microplate Reader (Bio-Tek Instruments Inc.). Media alone was used as a blank and proliferation in the absence of compounds served as positive control (DMSO control). The new IC50 was scored and the results are representative of 3-4 experiments.

[2] = test system: HRT118 colorectal cancer cells; assay: WST-1 proliferation/survival assay, HRT118; type: cell-based; details: Homo sapiens, read-out: Gemcitabine IC50
Protocol: as §1, §2

[3] = test system: DU145 prostate cancer cells; assay: WST-1 proliferation/survival assay, DU145; type: cell-based; details: Homo sapiens, DU-145, read-out: Gemcitabine IC50
Protocol: as §1, §2

[4] = test system: Mia Paca-2 pancreatic cancer cells; assay: WST-1 proliferation assay, Mia Paca-2; type: cell-based, human; details: Homo sapiens
[5] = test system: BT474 breast cancer cells; assay: WST-1 proliferation/survival assay, BT474; type: cell-based; details: Homo sapiens, BT-474, read-out: Gemcitabine IC50
Protocol: as §1, §2

H1299 NSCLC cells = assay: WST-1 proliferation/survival assay, H1299; type: cell-based; details: Homo sapiens, NCI-H1299, read-out: Gemcitabine IC50
Protocol: as §1, §2

BT20 breast cancer cells = assay: WST-1 proliferation/survival assay, BT20; type: cell-based; details: Homo sapiens, BT-20, read-out: Gemcitabine IC50
Protocol: as §1, §2

[6] = test system: CaCo-2 colorectal cancer cells; assay: WST-1 proliferation/survival assay, CaCo-2; type: cell-based; details: Homo sapiens, read-out: Gemcitabine IC50
Protocol: as §1, §2

[7] = test system: MDAMB 134 breast cancer cells; assay: WST-1 proliferation/survival assay, MDAMB 134; type: cell-based; details: Homo sapiens, read-out: Gemcitabine IC50
Protocol: as §1, §2

[8] = test system: Mia Paca-2 pancreatic tumors; assay: Nog-SCID mouse model of human pancreatic cancer; type: in vivo, Nog-SCID mice; details: day 56, 28 days of treatment; control 1023
[9] = test system: Abrams osteosarcoma cells; assay: Alamar Blue cell proliferation assay, Abrams; type: cell-based, canine; details: Canis lupus familiaris, 72 h, read-out: Combination IC50 (chemotherapeutic agent with fixed masitinib)
[10] = test system: Panc-1 pancreatic cancer cells; assay: WST-1 proliferation assay, Panc-1; type: cell-based, human; details: Homo sapiens
Protocol: (§3) Cancer cell lines: Pancreatic cancer cells lines (Mia Paca-2, Panc-1, BxPC-3 and Capan-2) were obtained from Dr. Juan Iovanna (Inserm, France). Cells were maintained in RPMI (BxPC-3, Capan-2) or DMEM (Mia Paca-2, Panc-1) medium containing glutamax-1 (Lonza), supplemented with 100 U/ml penicillin/100 μg/ml streptomycin, and 10% fetal calf serum (FCS) (AbCys, Lot S02823S1800). Expression of tyrosine kinases was determined by RT-PCR using Hot Star Taq (Qiagen GmbH, Hilden, Germany) in a 2720 Thermal Cycler (Applied Biosystems).
as §2, with “control. Results” for “control (DMSO control). The new IC50 was scored and the results”, “three/four” for “3-4”

A549 NSCLC cells = assay: WST-1 proliferation/survival assay, A549; type: cell-based; details: Homo sapiens, read-out: Gemcitabine IC50
Protocol: as §1, §2

[11] = test system: CMT27 breast carcinoma cells; assay: Alamar Blue cell proliferation assay, CMT27; type: cell-based, canine; details: Canis lupus familiaris, Breast carcinoma cell, 72 h, read-out: Combination IC50 (chemotherapeutic agent with fixed masitinib)
H1650 NSCLC cells = assay: WST-1 proliferation/survival assay, H1650; type: cell-based; details: Homo sapiens, NCI-H1650, read-out: Gemcitabine IC50
Protocol: as §1, §2

[12] = test system: BxPC-3 pancreatic cancer cells; assay: WST-1 proliferation assay, BxPC-3; type: cell-based, human
Protocol: as §3
as §2, with “control. Results” for “control (DMSO control). The new IC50 was scored and the results”, “three/four” for “3-4”

[13] = test system: CMT12 breast carcinoma cells; assay: Alamar Blue cell proliferation assay, CMT12; type: cell-based, canine; details: Canis lupus familiaris, Breast carcinoma cell, 72 h, read-out: Combination IC50 (chemotherapeutic agent with fixed masitinib)
[14] = test system: MDAMB 231 breast cancer cells; assay: WST-1 proliferation/survival assay, MDAMB 231; type: cell-based; details: Homo sapiens, MDA-MB-231, read-out: Gemcitabine IC50
Protocol: as §1, §2

[15] = test system: Capan-2 pancreatic cancer cells; assay: WST-1 proliferation assay, Capan-2; type: cell-based, human; details: Homo sapiens
Protocol: as §3
as §2, with “control. Results” for “control (DMSO control). The new IC50 was scored and the results”, “three/four” for “3-4”

D17 osteosarcoma cells = assay: Alamar Blue cell proliferation assay, D17; type: cell-based, canine; details: Canis lupus familiaris, 72 h, read-out: Combination IC50 (chemotherapeutic agent with fixed masitinib)
C2 mastocytoma cells = assay: Alamar Blue cell proliferation assay, C2; type: cell-based, canine; details: Canis lupus familiaris, 72 h, read-out: Combination IC50 (chemotherapeutic agent with fixed masitinib)
[16] = test system: OVCAR3 ovarian cancer cells; assay: WST-1 proliferation/survival assay, OVCAR3; type: cell-based; details: Homo sapiens, OVCAR-3, read-out: Gemcitabine IC50
Protocol: as §1, §2

- IC50 ([4]; MIA PaCa-2, read-out: IC50 of gemcitabine plus 5 μM masitinib): 1.5 µM
- IC50 ([4]; MIA PaCa-2, read-out: IC50 of gemcitabine plus 10 μM masitinib): 0.025 µM
- IC50 ([4]; Mia Paca-2, 72 hours, 1% FCS, read-out: IC50, single agent): > 10 µM
- IC50 ([4]; Mia Paca-2, read-out: IC50, single agent (resistance)): > 2500 µM
- IC50 [9]: 1 µM
- IC50 ([10]; PANC-1, read-out: IC50 of gemcitabine plus 5 μM masitinib): 8 µM
- IC50 ([10]; PANC-1, read-out: IC50 of gemcitabine plus 10 μM masitinib): 1 µM
- IC50 ([10]; Panc-1, 72 hours, 1% FCS, read-out: IC50, single agent): > 10 µM
- IC50 ([10]; Panc-1, read-out: IC50, single agent (resistance)): > 2500 µM
- IC50 [11]: 1.3 µM
- IC50 ([12]; BxPC-3, 72 hours, 1% FCS, read-out: IC50, single agent): 2 to 20 µM
- IC50 ([12]; Homo sapiens, BXPC-3, read-out: IC50 of gemcitabine plus 5 μM masitinib, BxPC-3, masitinib overnight before gemcitabine): 10 µM
- IC50 ([12]; Homo sapiens, BXPC-3, read-out: IC50 of gemcitabine plus 10 μM masitinib, BxPC-3, masitinib overnight before gemcitabine): 10 µM
- IC50 [13]: 10.8 µM
- IC50 ([15]; Capan-2, 72 h, Capan-2, 72 hours, 1% FCS, read-out: IC50, single agent): 2 to 20 µM
- IC50 ([15]; Capan-2, read-out: IC50 of gemcitabine plus 5 μM masitinib, Capan-2, masitinib overnight before gemcitabine): 2 µM
- IC50 (D17 osteosarcoma cells): 1.3 µM
- IC50 (C2 mastocytoma cells): > 100 µM
Compound: Nc1ccn([C@@H]2O[C@H](CO)[C@@H](O)C2(F)F)c(=O)n1 [Gemcitabine, 4-amino-1-(2-deoxy-2,2-difluoro-β-D-erythro-pentofuranosyl)pyrimidin-2(1H)-on 2′,2′-difluoro-2′-deoxycytidine]
- IC50 [1]: 25 to 100 µM
- IC50 [2]: > 100 µM
- IC50 [3]: 100 µM
- IC50 [5]: 100 µM
- IC50 (H1299 NSCLC cells): 100 µM
- IC50 (BT20 breast cancer cells): 50 µM
- IC50 [6]: > 100 µM
- IC50 [7]: 100 µM
- Tumor Volume, Median [8]: 662* mm^3
- IC50 (A549 NSCLC cells): 100 µM
- IC50 (H1650 NSCLC cells): 5 µM
- IC50 [14]: 100 µM
- IC50 [16]: 50 µM
